Data set [1] relates to Anaerobic Acid Producing (AnAP) Bacteria. Put plainly: Biocide test API RP 38, anaerobic acid producing bacteria. Format: cell-based. The conditions noted are these: 4 hours contact at 37° C., growth monitored 15 days. How it is done:
(§1) The effectiveness of the polymeric quaternary ammonium salts as a biocide was tested using the method shown in the API Recommended Practice for Biological Analysis of Subsurface Injection Waters, API RP 38, March, 1982, which is hereby fully incorporated by reference. The effectiveness of the salts as a biocide was tested using planktonic sulfate reducing bacteria (SRB), Aerobic Acid Producing Bacteria (AAPB) and Anaerobic Acid Producing (AnAP) Bacteria.
(§2) The desired concentrations of the polymeric quaternary ammonium salt biocide were added to clean sterilized bottles. Two bottles contained no biocides and served as controls. Under a N2 blanket, 10 mL of actively growing bacterial culture (24 hours old) was added to each of the bottles, and a 1 mL sample was taken and serially diluted into six bottles. The solutions were mixed well and the bottles were placed in an incubator at 37° C. for 4 hours. At the end of this period, 1 mL samples from each of the treated bottles were taken and serially diluted into 3 bottles. Samples from the control bottles were serially diluted into six bottles. All bottles were then placed in an incubator at 37° C. and bacterial growth was monitored for 15 days.

Data set [2] deals with Aerobic Acid Producing Bacteria (AAPB). Put plainly: Biocide test API RP 38, aerobic acid producing bacteria. Format: cell-based. The conditions noted are these: 4 hours contact at 37° C., growth monitored 15 days. The method, then:
as §1, §2

Data set [3] deals with planktonic sulfate reducing bacteria (SRB). Put plainly: Biocide test API RP 38, sulfate reducing bacteria. Format: cell-based. The conditions noted are these: 4 hours contact at 37° C., growth monitored 15 days. How it is done:
as §1, §2

A short description of data set [4]: Standard testing procedures for determining biodegradability. The source says: The present invention provides compositions comprising polymeric quaternary ammonium salts and methods of their use as a corrosion inhibitor and/or biocide. The polymeric quaternary ammonium salts described herein are highly biodegradable, thereby making these compositions highly desirable for use in corrosion systems that require careful consideration concerning environmental impact, such as on offshore drilling platforms. […] For purposes of comparison, sodium benzoate was about 85.5% biodegraded after 7 days, about 95% biodegraded after 14 days and 100% biodegraded after 28 days.

For the molecule `O=CCCCC=O` [Glutaraldehyde], the “Bacterial cells/ml, Anaerobic Acid Producing (AnAP) Bacteria” value in data set [1] (dosage 31.3 ppm) was 10^2 cells/ml; in data set [1] (dosage 62.5 ppm), “≧10^3 cells/ml”; in data set [1] (dosage 125 ppm), “≧10^3 cells/ml”. The “Bacterial cells/ml, Aerobic Acid Producing Bacteria (AAP)” value in data set [2] (dosage 100 ppm) is “≧10^3 cells/ml”; in data set [2] (dosage 200 ppm), “≧10^3 cells/ml”; in data set [2] (dosage 375 ppm), 10^2 cells/ml; in data set [2] (dosage 500 ppm) it was 10^1 cells/ml. Also, the “Bacterial cells/ml, sulfate reducing bacteria” value is listed as 10^1 cells/ml in data set [3] (dosage 31.3 ppm) and 0^ cells/ml in data set [3] (dosage 62.5 ppm).

Consider `O=C([O-])c1ccccc1.[Na+]` [sodium benzoate], for which the biodegraded entry is “about 85.5%” in data set [4] (after 7 days), “about 95%” in data set [4] (after 14 days) and 100% in data set [4] (after 28 days).

The values above are taken from patent US20060062753A1, “Polymeric quaternary ammonium salts useful as corrosion inhibitors and biocides” (priority 2004, published 2006).
